From article PMC7998731, “Pharmacokinetic Characterization of Supinoxin and Its Physiologically Based Pharmacokinetic Modeling in Rats” (Pharmaceutics, 2021)
Where two headings read alike, the source gives them in different places.

Legend:
[1] = Unbound fraction in microsomal incubation mixture (Rapid Equilibrium Dialysis); assay type: in vitro ADME; details: rat, liver microsomes 0.5 mg protein/mL
Description: (§1) To determine the unbound fraction of supinoxin in the plasma, a protein binding study was carried out using the Rapid Equilibrium Dialysis (RED) method. Following the manufacturer’s protocol (Thermo Fisher Scientific, San Jose, CA, USA), supinoxin was added to a plasma aliquot to produce a final concentration of 1 µg/mL. A plasma aliquot containing supinoxin (200 µL) and buffer (350 µL) was added to the sample chamber and the buffer chamber, respectively. When necessary, supinoxin was added to the microsomal incubation mixture (0.5 mg of protein per mL in potassium phosphate buffer) to produce final concentrations of 1 µM. The plate was covered and agitated on an orbital shaker at approximately 250 rpm at 37 °C. Aliquots (25 µL) of the plasma and buffer were collected at 4, 8, 18, and 24 h, and the samples were subjected to LC–MS/MS analysis. The fraction of supinoxin bound to plasma protein was estimated as follows:Percent bound (%) = [1 − (concentration in buffer/concentration in plasma)] × 100%(5)

[2] = Transport of supinoxin in Caco-2 cells (bidirectional permeability); assay type: in vitro ADME; details: human
Description: The Caco-2 intestinal epithelial cell line (ATCC® HTB-37™) purchased from American Type Culture Collection (ATCC, Manassas, VA, USA) was cultured and maintained in Dulbecco’s modified Eagle medium (DMEM) containing 10% fetal bovine serum, 100 U/mL penicillin, and 0.1 mg/mL streptomycin under humidified atmosphere of air containing 5% CO2 at 37 °C. Caco-2 cells were seeded at a density of 6 × 10^4 cells/cm^2 onto polyethylene membranes of transwell plates (Corning Costar, Cambridge, MA, USA). The medium was replaced on alternate days after seeding, and cell monolayers were used for the transport assay after approximately 21 days of culture. Trans-epithelial electrical resistance (TEER) values of the Caco-2 monolayers were measured with an EVOM epithelial tissue voltmeter (World Precision Instruments, Sarasota, FL, USA), and cells with TEER greater than 300 Ω were used for the experiments. Cell monolayers were first rinsed three times with transport buffer (Hank’s balanced salt solution supplemented with 10 mM HEPES) and preincubated for 30 min at 37 °C. To measure the bidirectional transport of the compound, a transport buffer containing 1 µM supinoxin was added to the respective donor compartments (the apical and basolateral sides for absorptive and secretory transport assays, respectively). Samples (200 µL) were collected at 30, 60, 90, and 120 min, and an identical volume of fresh buffer was replenished. The samples were then subjected to LC–MS/MS analysis and concentrations of the samples were determined. After the final sampling from both compartments, we measured the TEER of the monolayers to ensure no possible adverse effects induced by the experimental procedures and then estimated the apparent permeability coefficient of supinoxin from the compound’s time-dependent accumulation (dQ/dt) in the receiver compartments using the following equation: Papp = dQ/dt × 1/(A × C0)(1) where dQ/dt is the rate of transport, A is the surface area of the filter, and C0 is the initial concentration in the donor chamber.

[3] = Tissue distribution (tissue-to-plasma partition) in rats; assay type: in vivo; details: male, rat; for Vd: oral; for AUC(0-t): mean, read-out: AUC0–24h
[4] = Plasma protein binding by Rapid Equilibrium Dialysis; assay type: in vitro ADME; details: rat plasma
Description: as §1

fraction unbound at 18 h, 1 µM ([1]; liver microsomal incubation mixture, 18 h incubation): 0.623 ± 0.016
fraction unbound at 4 h, 1 µM ([1]; 4 h incubation): 0.518 ± 0.025
fraction unbound at 8 h, 1 µM ([1]; 8 h incubation): 0.57 ± 0.017
fraction unbound at 24 h, 1 µM ([1]; 24 h incubation): 0.615 ± 0.046
Papp A→B at 120 min, 1 µM ([2]; Caco-2, Caco-2 cell monolayers, supinoxin 1 µM, read-out: apical to basolateral apparent permeability coefficient): 18.5 ± 2.4 ×10⁻⁶ cm/s
Papp A→B at 120 min, 1 µM ([2]; Caco-2, PBPK input parameter, Determined, read-out: Caco-2 permeability): 18.5 ×10⁻⁶ cm/s
efflux ratio at 120 min, 1 µM ([2]; Caco-2 cell monolayers): 1.24
Papp B→A at 120 min, 1 µM ([2]; Caco-2 cell monolayers, supinoxin 1 µM, read-out: basolateral to apical apparent permeability coefficient): 22.6 ± 1.8 ×10⁻⁶ cm/s
Vd ([3]; Sprague Dawley, plasma, 5 mg/kg, estimated Kp and tissue volumes from literature, read-out: steady state volume of distribution calculated from Kp and tissue volumes): 1.92 L
AUC(0-t) ([3]; Sprague Dawley, Adipose tissue, rats, oral administration (5 mg/kg)): 111000 ng·h/mL
AUC(0-t) ([3]; Sprague Dawley, Spleen, rats, oral administration (5 mg/kg)): 3310 ng·h/mL
AUC(0-t) ([3]; Sprague-Dawley, kidney, Kidneys, rats, oral administration (5 mg/kg)): 11100 ng·h/mL
Kp ([3]; Sprague-Dawley, kidney, Kidneys, rats, oral administration (5 mg/kg), read-out: Kp (tissue to plasma AUC ratio)): 2.18
AUC(0-t) ([3]; Sprague-Dawley, lung, Lungs, rats, oral administration (5 mg/kg)): 5520 ng·h/mL
Kp ([3]; Sprague-Dawley, lung, Lungs, rats, oral administration (5 mg/kg), read-out: Kp (tissue to plasma AUC ratio)): 1.08
AUC(0-t) ([3]; Sprague-Dawley, muscle, Muscles, rats, oral administration (5 mg/kg)): 6130 ng·h/mL
Kp ([3]; Sprague-Dawley, muscle, Muscles, rats, oral administration (5 mg/kg), read-out: Kp (tissue to plasma AUC ratio)): 1.2
Vd ([3]; Sprague-Dawley, 5 mg/kg, sum of Kp × Volume over plasma and tissues, read-out: Vd): 1.92 L/kg
Kp ([3]; Sprague-Dawley, several tissues (range over tissues), intravenous, 5 mg/kg, range over tissues, PBPK input parameter, Determined, read-out: Tissue: Plasma partition coefficients): 0.649 to 21.7
AUC(0-t) ([3]; Sprague-Dawley, Adipose tissue, rats, oral administration (5 mg/kg)): 111000 ng·h/mL
Kp ([3]; Sprague-Dawley, Adipose tissue, rats, oral administration (5 mg/kg), read-out: Kp (tissue to plasma AUC ratio)): 21.7
AUC(0-t) ([3]; Sprague-Dawley, Brain, rats, oral administration (5 mg/kg)): 4350 ng·h/mL
Kp ([3]; Sprague-Dawley, Brain, rats, oral administration (5 mg/kg), read-out: Kp (tissue to plasma AUC ratio)): 0.85
AUC(0-t) ([3]; Sprague-Dawley, Gut, rats, oral administration (5 mg/kg)): 25300 ng·h/mL
Kp ([3]; Sprague-Dawley, Gut, rats, oral administration (5 mg/kg), read-out: Kp (tissue to plasma AUC ratio)): 4.96
AUC(0-t) ([3]; Sprague-Dawley, Heart, rats, oral administration (5 mg/kg)): 3550 ng·h/mL
Kp ([3]; Sprague-Dawley, Heart, rats, oral administration (5 mg/kg), read-out: Kp (tissue to plasma AUC ratio)): 0.7
AUC(0-t) ([3]; Sprague-Dawley, Liver, rats, oral administration (5 mg/kg)): 24300 ng·h/mL
Kp ([3]; Sprague-Dawley, Liver, rats, oral administration (5 mg/kg), read-out: Kp (tissue to plasma AUC ratio)): 4.76
AUC(0-t) ([3]; Sprague-Dawley, Plasma, rats, oral administration (5 mg/kg)): 5110 ng·h/mL
Kp ([3]; Sprague-Dawley, Plasma, rats, oral administration (5 mg/kg), read-out: Kp (tissue to plasma AUC ratio)): 1
AUC(0-t) ([3]; Sprague-Dawley, Spleen, rats, oral administration (5 mg/kg)): 3310 ng·h/mL
Kp ([3]; Sprague-Dawley, Spleen, rats, oral administration (5 mg/kg), read-out: Kp (tissue to plasma AUC ratio)): 0.65
AUC(0-t) ([3]; Sprague-Dawley, Testes, rats, oral administration (5 mg/kg)): 5370 ng·h/mL
Kp ([3]; Sprague-Dawley, Testes, rats, oral administration (5 mg/kg), read-out: Kp (tissue to plasma AUC ratio)): 1.05
fraction unbound at 4 h, 1 µg/mL ([4]; 1 µg/mL, 4 h incubation): 0.023 ± 0.0025
fraction unbound at 8 h, 1 µg/mL ([4]; 1 µg/mL, 8 h incubation): 0.0283 ± 0.0019
fraction unbound at 24 h, 1 µg/mL ([4]; 1 µg/mL, 24 h incubation): 0.0354 ± 0.0055
fraction unbound at 1 µg/mL ([4]; as fraction, Determined, read-out: Fraction unbound in plasma (fu)): 0.0363
Structure (SMILES): COc1cc(OC)cc(N2CCN(C(=O)Nc3nc4cc(F)ccc4nc3OC)CC2)c1 [supinoxin, 1-(3,5-Dimethoxyphenyl)-4-[(6-Fluoro-2-Methoxyquinoxalin-3-yl) Aminocarbonyl] Piperazine]
